Values of other authors in patent US20070162983A1, “Diagnostic and therapeutic use of the human sgpl1 gene and protein for neurodegenerative diseases” (Evotec NeuroSciences GmbH, priority 2003, published 2007).

What was measured:
[1] = system: SGPL1; conditions: known specific inhibitors of SGPL1 activity; for IC50: read-out: IC50, inhibition of SGPL1 activity
[2] = dogs, estimated (Tosaka et al., Stroke 2001)

Row | Compound | IC50 [1] | other results
1 | CCCC[C@H](C)[C@H](O)[C@H](O)C[C@H](C)C[C@@H](O)CCCC[C@@H](O)C[C@H](O)[C@H](C)N | 20 µM | 
2 | 2-vinyl analog of sphinganine phosphate | 2.4 µM | 
3 | CCCCCCCCCCCCCCC[C@H](O)[C@@H](N)COP(=O)(O)O (single isomer, unassigned) [2D,3L-isomer of sphinganine phosphate] |  | Ki ([1]; read-out: Ki, inhibition of SGPL1 activity): 9.7 µM
4 | CCCCCCCCCCCCC/C=C/[C@@H](O)[C@@H](N)COP(=O)(O)O [S1P, sphingosine-1-phosphate] |  | half-life in cerebrospinal fluid (CSF) [2]: approximately 10 minutes
